According to US7550589B2, “6-(2-alkyl-phenyl)-pyrido[2,3-D]pyrimidines useful as protein kinase inhibitors” (Hoffman-La Roche Inc., priority 2004, dated 2009):

Tests used:
Src (p60^c-src) = biological target: T1, Src (p60^c-src) (Homo sapiens, UniProt P12931); test: SRC-Inhibitor-Assay, time-resolved fluorescence kinase assay (Src); assay type: biochemical; conditions: ATP 5 μM; peptide 10 μM; enzyme 2.5 U/ml; pre-incubated 15 min at 15° C.
T1 construct: purchased UBI, Upstate Biotech, Inc
Text: (§1) The activity of the compounds according to this invention as inhibitors for the src-family tyrosine kinases was shown by using the following assay.
(§2) SRC-Inhibitor-Assay Parameters:
(§3) Eu-labelled Phosphotyrosine Antibody: for Lck Cisbio Mab PT66-K, • for Src EG&G Wallac PT66 Eu-W1024 (all commercially available).
(§4) Peptides: Ro: NH2-A-E-E-E-I-Y-G-E-F-E-A-K-K-K-K-CONH2, and • Ja133-Ro: Ja133-G-Aminocaprylic acid-A-E-E-E-I-Y-G-E-F-E-A-K-K-K-K-CONH2, wherein Ja133 is LightCycler-Red 640-N-hydroxy succinimide ester; • whereby both peptides were synthesized by an optimized solid phase peptide synthesis protocol (Merrifield, Fed. Proc. Fed. Amer. Soc. Exp. Biol. 21 (1962) 412) on a Zinsser SMP350 peptide synthesizer. Shortly, the peptide was assembled on 160 mg (22.8 μmol scale) of a Rink-Linker modified polystyrene solid phase by repeatedly conjugating an twenty fold excess of amino acids each protected by temporary piperidine labile Fmoc- and permanent acid labile tert-Bu—, BOC- and O-tert-Bu-groups depending on the side chain function. The substrate sequence AEEEIYGEFEAKKKK was N-terminal additionally mounted with the spacer amino acids Aminocaprylic acid and Glycin. After cleavage of the N-terminal temporary protecting group the still attached and protected peptide was labeled with a 1.5 fold amount of LightCycler-Red 640-N-hydroxy succinimide ester (purchased from Roche Diagnostics GmbH) and triethylamine. After 3 hrs. the resin was washed with Dimethylformamide and Isopropanol until the eluates of the blue resin got colourless. […] The substrate was finally isolated by a preparative reverse phase HPLC purification. The purification yielded 12.2 mg RP-HPLC single peak pure blue material (lyophilisate). The identity was proven by MALDI mass spectroscopy [2720.0].
(§5) Enzymes: Upstate Lck (p56^lck, active), Upstate Src (p60^c-src, partially purified) were purchased from UBI, Upstate Biotech, Inc.
(§6) Time-resolved Fluorescence Assay: Reader: Perkin Elmer, Wallac Viktor 1420-040 multilabel counter; Liquid handling system: Beckman Coulter, Biomek 2000.
(§7) ATP, Tween™ 20, 4-(2-hydroxyethyl)-1-piperazineethanesulfonic acid (HEPES) were purchased from Roche Molecular Biochemicals, MgCl2 and MnCl2 were purchased from Merck Eurolab, Tris(2-carboxyethyl)phosphine hydrochloride (TCEP) was purchased from Pierce, 384 Well low volume fluorescence plates was purchased from Falcon.
(§8) At first the enzyme is pre-incubated for 15 min. at 15° C. in aqueous solution with corresponding amounts of inhibitors according to this invention. Then the phosphorylation reaction is started by adding a reaction mixture, containing ATP, Peptide and PT66, and subsequent shaking. The proceeding of this reaction is immediately monitored using time resolved fluorescence spectroscopy in a suitable well plate reader.
(§9) The IC50-values can be obtained from the reaction rates by using a non-linear curve fit (XLfit software (ID Business Solution Ltd., Guilford, Surrey, UK))

Lck (p56^lck) = biological target: T2, Lck (p56^lck) (Homo sapiens, UniProt P06239); test: SRC-Inhibitor-Assay, time-resolved fluorescence kinase assay (Lck); assay type: biochemical; conditions: ATP 5 μM; peptide 10 μM; enzyme 2.5 U/ml; pre-incubated 15 min at 15° C.
T2 construct: purchased UBI, Upstate Biotech, Inc
T2 sequence (P06239 whole entry, species assumed): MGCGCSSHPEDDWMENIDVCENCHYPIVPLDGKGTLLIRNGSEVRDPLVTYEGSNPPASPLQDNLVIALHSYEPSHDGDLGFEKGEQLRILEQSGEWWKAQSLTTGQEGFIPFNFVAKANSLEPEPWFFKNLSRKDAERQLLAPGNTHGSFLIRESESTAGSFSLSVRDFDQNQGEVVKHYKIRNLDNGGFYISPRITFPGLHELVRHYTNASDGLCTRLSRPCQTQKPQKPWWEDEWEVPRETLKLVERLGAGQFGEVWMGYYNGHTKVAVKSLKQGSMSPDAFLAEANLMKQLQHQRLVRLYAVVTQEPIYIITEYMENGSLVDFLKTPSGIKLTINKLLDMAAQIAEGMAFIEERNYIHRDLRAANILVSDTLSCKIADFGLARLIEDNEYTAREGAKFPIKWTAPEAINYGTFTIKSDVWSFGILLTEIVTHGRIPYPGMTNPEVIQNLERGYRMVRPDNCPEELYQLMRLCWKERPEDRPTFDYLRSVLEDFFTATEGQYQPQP
Text: as §1, §2, §3, §4, §5, §6, §7, §8, §9

T1 sequence (P12931 whole entry): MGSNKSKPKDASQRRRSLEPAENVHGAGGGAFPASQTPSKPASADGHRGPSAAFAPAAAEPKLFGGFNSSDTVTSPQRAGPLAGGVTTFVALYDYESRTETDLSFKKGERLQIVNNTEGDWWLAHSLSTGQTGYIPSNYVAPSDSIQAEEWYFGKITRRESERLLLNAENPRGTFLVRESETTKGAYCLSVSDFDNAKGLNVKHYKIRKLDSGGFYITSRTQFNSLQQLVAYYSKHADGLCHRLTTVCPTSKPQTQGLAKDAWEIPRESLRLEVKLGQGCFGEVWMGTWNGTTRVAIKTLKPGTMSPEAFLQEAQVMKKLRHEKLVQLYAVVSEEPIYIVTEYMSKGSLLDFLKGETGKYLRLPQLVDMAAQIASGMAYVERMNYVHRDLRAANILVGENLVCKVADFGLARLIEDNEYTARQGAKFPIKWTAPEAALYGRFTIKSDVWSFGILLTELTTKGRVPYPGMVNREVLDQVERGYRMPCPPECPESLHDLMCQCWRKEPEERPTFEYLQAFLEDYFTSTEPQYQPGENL

IC50 (Src (p60^c-src)) [nM]	IC50 (Lck (p56^lck)) [nM]	Structure (SMILES)
5 to 50	20 to 50	CS(=O)(=O)NCCNC(=O)c1nc2nc(Nc3ccc4c(c3)S(=O)(=O)CCO4)ncc2cc1-c1ccccc1C(F)(F)F [Example 2, 2-(4,4-Dioxo-3,4-dihydro-2H-4lambda*6*-benzo[1,4]oxathiin-6-ylamino)-6-(2-trifluoromethyl-phenyl)-pyrido[2,3-d]pyrimidine-7-carboxylic acid (2-methanesulfonylamino-ethyl)-amide]
1	11.8	CC(=O)Nc1cccc(Nc2ncc3cc(-c4ccccc4C)c(C(=O)NCCNS(C)(=O)=O)nc3n2)c1 [Example 3, 2-(3-Acetylamino-phenylamino)-6-o-tolyl-pyrido[2,3-d]pyrimidine-7-carboxylic acid (2-methanesulfonylamino-ethyl)-amide]
0.5 to 5	1 to 20	Cc1ccccc1-c1cc2cnc(Nc3ccc(N4CCOCC4)cc3)nc2nc1C(=O)NC[C@H]1CCCN1 [Example 7, (R)-2-(4-Morpholin-4-yl-phenylamino)-6-o-tolyl-pyrido[2,3-d]pyrimidine-7-carboxylic acid (pyrrolidin-2-ylmethyl)-amide]
0.5 to 5	1 to 20	CS(=O)(=O)NCCNC(=O)c1nc2nc(Nc3ccc(N4CCOCC4)cc3)ncc2cc1-c1ccccc1C(F)(F)F [Example 11, 2-(4-Morpholin-4-yl-phenylamino)-6-(2-trifluoromethyl-phenyl)-pyrido[2,3-d]pyrimidine-7-carboxylic acid (2-methanesulfonylamino-ethyl)-amide]
0.5 to 5	1 to 20	O=C(NC[C@H]1CCCN1)c1nc2nc(Nc3ccc(N4CCOCC4)cc3)ncc2cc1-c1ccccc1C(F)(F)F [Example 14, (R)-2-(4-Morpholin-4-yl-phenylamino)-6-(2-trifluoromethyl-phenyl)-pyrido[2,3-d]pyrimidine-7-carboxylic acid (pyrrolidin-2-ylmethyl)-amide]

The next lines start with the compound.

Structure (SMILES)	IC50 (Src (p60^c-src)) [nM]	IC50 (Lck (p56^lck)) [nM]
CC(=O)Nc1cccc(Nc2ncc3cc(-c4ccccc4C)c(C(=O)NC[C@H]4CCCN4)nc3n2)c1 [Example 1, (R)-2-(3-Acetylamino-phenylamino)-6-o-tolyl-pyrido[2,3-d]pyrimidine-7-carboxylic acid (pyrrolidin-2-ylmethyl)-amide]	0.7	8
Cc1ccccc1-c1cc2cnc(Nc3ccc(N4CCOCC4)cc3)nc2nc1C(=O)NCCNS(C)(=O)=O [Example 5, 2-(4-Morpholin-4-yl-phenylamino)-6-o-tolyl-pyrido[2,3-d]pyrimidine-7-carboxylic acid (2-methanesulfonylamino-ethyl)-amide]	0.5 to 5	1 to 20
CNCCNC(=O)c1nc2nc(Nc3cccc(NC(C)=O)c3)ncc2cc1-c1ccccc1C [Example 8, 2-(3-Acetylamino-phenylamino)-6-o-tolyl-pyrido[2,3-d]pyrimidine-7-carboxylic acid (2-methylamino-ethyl)-amide]	0.5 to 5	1 to 20
CNCCNC(=O)c1nc2nc(Nc3cccc(NS(C)(=O)=O)c3)ncc2cc1-c1ccccc1C [Example 9, 2-(3-Methanesulfonylamino-phenylamino)-6-o-tolyl-pyrido[2,3-d]pyrimidine-7-carboxylic acid (2-methylamino-ethyl)-amide]	0.5 to 5	1 to 20
CC(=O)Nc1cccc(Nc2ncc3cc(-c4ccccc4C(F)(F)F)c(C(=O)NC[C@H]4CCCN4)nc3n2)c1 [Example 15, (R)-2-(3-Acetylamino-phenylamino)-6-(2-trifluoromethyl-phenyl)-pyrido[2,3-d]pyrimidine-7-carboxylic acid (pyrrolidin-2-ylmethyl)-amide]	0.5 to 5	1 to 20
O=C(NC[C@H]1CCCN1)c1nc2nc(Nc3ccc4c(c3)S(=O)(=O)CCO4)ncc2cc1-c1ccccc1C(F)(F)F [Example 17, (R)-2-(4,4-Dioxo-3,4-dihydro-2H-4lambda*6*-benzo[1,4]oxathiin-6-ylamino)-6-(2-trifluoromethyl-phenyl)-pyrido[2,3-d]pyrimidine-7-carboxylic acid (pyrrolidin-2-ylmethyl)-amide]	5 to 50	20 to 50
